# Tests used:
# [1] = over the parent acid; cited from earlier work
# [2] = Phase 2 trials, nearly 1,400 patients; cited from earlier work
# [3] = test system: Gram-negative and Gram-negative bacteria; details: cited from earlier work
# topoisomerase and gyrase = details: cited from earlier work
# [4] = Solid-state stability / polymorph conversion followed by XRPD; format: physicochemical; details: for thermodynamic stability: Form 1A versus Form 1B
# Description: X-Ray Powder Diffraction patterns were collected on a Bruker AXS C2 GADDS diffractometer using Cu Kα radiation (40 kV, 40 mA), automated XYZ stage, laser video microscope for auto-sample positioning and a HiStar 2-dimensional area detector. X-ray optics consists of a single Gael multilayer mirror coupled with a pinhole collimator of 0.3 mm. A weekly performance check was carried out using a certified standard NIST 1976 Corundum (flat plate). Similar instruments can be used to obtain XRPD patterns.
# The beam divergence, i.e. the effective size of the X-ray beam on the sample, was approximately 4 mm. A θ-θ continuous scan mode was employed with a sample—detector distance of 20 cm which gives an effective 2θ range of 3.2°-29.7°. The samples were exposed to the X-ray beam for approximately 120 seconds. The software used for data collection was GADDS for WNT 4.1.16 and the data were analyzed and presented using Diffrac Plus EVA v11.0.0.2 or v13.0.0.2.
# Samples run under ambient conditions were prepared as flat plate specimens using powder as received without grinding. Approximately 1-2 mg of the sample was lightly pressed on a glass slide to obtain a flat surface.
# [5] = Intrinsic dissolution rate; format: physicochemical
# Description: Approximately 100 mg of the pure test compound was compressed under high pressure (7 ton), using a constructed die. No additives were added, thus avoiding any external interference in the intrinsic dissolution profile. The resulting non-disintegrating disc was transferred to the dissolution apparatus, Distek model 5100 premiere dissolution system, containing 900 mL of pH 5 buffer with 15 mM hexadecyl trimethyl ammonium bromide (HTAB), pre-heated to 37° C. The stirring speed of the paddle was set to 50 rpm. The solution was sampled at set time points with the resulting aliquots analyzed directly by HPLC, with reference to standard solutions. 5 standards, with concentrations ranging from 0.03 to 0.005 mg/mL in deionized water, and the sample solutions were injected, together with blank injections of the deionized water. The concentration was calculated using the peak areas determined by integration of the peak found at the same retention time as the principal peak in the standard injection.
# [6] = Modulated differential scanning calorimetry (mDSC); format: physicochemical; details: mDSC thermogram, FIG. 4
# Description: DSC data were collected on a TA Instruments Q2000 equipped with a 50 position autosampler. Similar instruments can be used to collect DSC data. The calibration for thermal capacity was carried out using sapphire and the calibration for energy and temperature was carried out using certified indium. Modulated temperature DSC was carried out using an underlying heating rate of 2° C./min and temperature modulation parameters of ±1.2° C. (amplitude) every 60 seconds (period). Typically 0.5-3 mg of each sample, in a pin-holed aluminum pan, was heated at […] from 25° C. to 220° C. A purge of dry nitrogen at 50 ml/min was maintained over the sample. The instrument control software was Advantage for Q Series v2.8.0.392 and Thermal Advantage v4.8.3 and the data were analyzed using Universal Analysis v4.4A.
structure (smiles),measurement,setting,value
"CNC[C@H](O)[C@@H](O)[C@H](O)[C@H](O)CO.Nc1nc(-n2cc(C(=O)O)c(=O)c3cc(F)c(N4CC(O)C4)c(Cl)c32)c(F)cc1F [D-glucitol, 1-deoxy-1-(methylamino)-, 1-(6-amino-3,5-difluoropyridin-2-yl)-8-chloro-6-fluoro-1,4-dihydro-7-(3-hydroxyazetidin-1-yl)-4-oxo-3-quinolinecarboyxlate]","solubility, dissolution and bioavailability",[1],"improved solubility, dissolution and bioavailability"
"Nc1nc(-n2cc(C(=O)O)c(=O)c3cc(F)c(N4CC(O)C4)c(Cl)c32)c(F)cc1F [Delafloxacin, 1-deoxy-1-(methylamino)-, 1-(6-amino-3,5-difluoropyridin-2-yl)-8-chloro-6-fluoro-1,4-dihydro-7-(3-hydroxyazetidin-1-yl)-4-oxo-3-quinolinecarboyxlate]",tolerance and safety,[2],good tolerance and safety
same,potency against bacteria,[3],highly potent
same,inhibition of topoisomerase and gyrase enzyme targets,topoisomerase and gyrase,balanced inhibition
"CNC[C@H](O)[C@@H](O)[C@H](O)[C@H](O)CO.Nc1nc(-n2cc(C(=O)O)c(=O)c3cc(F)c(N4CC(O)C4)c(Cl)c32)c(F)cc1F [Form 1A, D-glucitol, 1-deoxy-1-(methylamino)-, 1-(6-amino-3,5-difluoropyridin-2-yl)-8-chloro-6-fluoro-1,4-dihydro-7-(3-hydroxyazetidin-1-yl)-4-oxo-3-quinolinecarboyxlate]",thermodynamic stability,[4],thermodynamic stability over Form 1B
same,dissolution characteristics,[5]; Form 1A versus Form 1B,improved dissolution characteristics
"CNC[C@H](O)[C@@H](O)[C@H](O)[C@H](O)CO.Nc1nc(-n2cc(C(=O)O)c(=O)c3cc(F)c(N4CC(O)C4)c(Cl)c32)c(F)cc1F [Form 1B, D-glucitol, 1-deoxy-1-(methylamino)-, 1-(6-amino-3,5-difluoropyridin-2-yl)-8-chloro-6-fluoro-1,4-dihydro-7-(3-hydroxyazetidin-1-yl)-4-oxo-3-quinolinecarboyxlate]",non-reversible transition of Form 1B to Form 1A,[6],about 94 °C
same,thermodynamic stability,[4],metastable
same,conversion of polymorphic form,"[4]; exposure to humidity and heat, followed by XRPD b-axis reflections",converts to crystalline anhydrous Form 1A delafloxacin meglumine on exposure to humidity and heat
same,initial dissolution rate (intrinsic dissolution profile),"[5]; compressed disc, 900 mL pH 5 buffer with 15 mM HTAB, 37° C., 50 rpm, compared with the other phase",significantly faster initial dissolution rates
same,dissociation to the free acid post IDR,[5]; confirmed by 1H NMR analyses post IDR,almost complete dissociation to the free acid

# From patent US20160046603A1, “Crystalline Forms of D-Glucitol, 1-Deoxy-1-(Methylamino)-, 1-(6-Amino-3,5-Difluoropyridine-2-Yl)-8-Chloro-6-Fluoro-1,4-Dihydro-7-(3-Hydroxyazetidin-1-Yl)-4-Oxo-3-Quinolinecarboxylate” (MELINTA THERAPEUTICS, INC., priority 2013, published 2016)
